Measured values as given in patent publication US5798356A, “Angiostatic compounds” (Alcon Laboratories, Inc., priority 1996, dated 1998).

What was measured:
rabbit cornea = assay: rabbit model of lipopolysaccharide (LPS) induced corneal neovascularization; assay type: in vivo; settings: Elvax-40 pellet in cornea, Elvax control = 100
Description: Representative compounds of the present invention were assayed for their efficacy in inhibiting angiogenesis in vivo, in a rabbit model of lipopolysaccharide (LPS) induced corneal neovascularization. Briefly, the test compound and LPS (a stimulus for initiating neovascularization) are incorporated into separate Elvax-40 pellets as described in D. […] The area covered by new vessel formation in response to LPS is measured and suppression of neovascularization by test compounds is estimated at the end of the test period. The data is expressed as a relative area units in relation to the Elvax control (100).

[1] = test system: human umbilical vein endothelial cells (HUVEC); assay: inhibition of endothelial cell proliferation (HUVEC); assay type: cell-based; settings: for inhibition at 1 µM / inhibition at 5 µM / inhibition at 10 µM / inhibition at 25 µM: Homo sapiens; for inhibition at 25 µM: concentration 25 μM
Description: Representative compounds of the present invention were assayed for their efficacy in inhibiting endothelial cell proliferation. […] At mid-log phase the cells were detached from the plate and counted using a coulter counter. Viability tests were conducted using trypan blue. The data is expressed as percent inhibition based on the control number of endothelial cells counted.

[2] = test system: human lung microvascular endothelial cells; assay: inhibition of 3H-thymidine uptake in DNA as a measure of DNA synthesis; assay type: cell-based; settings: Endothelial cell, 18 hours exposure, then 3H-thymidine 6 hours; for inhibition at 5 µM: concentration 5.0 μM; for inhibition at 10 µM: concentration 10 μM; for inhibition at 25 µM: concentration 25 μM
Description: Representative compounds of the present invention were assayed for their efficacy in inhibiting ^3 H-thymidine uptake in DNA as a measure of DNA synthesis (R.I. Freshney, Culture of Animal Cells, 3rd Edition, John Wiley and Sons, N.Y., N.Y., pages 277-278 (1994)). Briefly, human lung microvascular endothelial cells in mid-log phase were exposed to either a representative compound of the present invention or the vehicle (1.0% DMSO) for 18 hours. Cells were then incubated with ^3 H-thymidine for another 6 hours. DNA synthesis was stopped by the addition of cold 5% TCA solution and the relative synthesis assessed by measuring ^3 H-thymidine incorporated into the acid-insoluble product. The data is expressed as percent inhibition of uptake based on tritium counts in the vehicle control reactions.

[3] = test system: chorioallantoic membrane (CAM); assay: inhibition of angiogenesis in a chorioallantoic membrane (CAM) model; assay type: in vivo, chicken embryo; settings: 10 μg in liposome/agarose bead on CAM, 2 days; percent responding embryos per nanomole relative to tetrahydrocortisol
Description: Representative compounds of the present invention were assayed for their efficacy in inhibiting angiogenesis in a chorioallantoic membrane (CAM) model (See, McNatt, et al., Angiostatic Activity and Metabolism of Cortisol in The Chorioallantoic Membrane (CAM) of the Chick Embryo, Journal of Steriod Biochemistry and Molecular Biology, volume 42, No. 7, pages 687-693 (1992)). Briefly, 10 μg of the test compound or reference compound (tetrahydrocortisol) were suspended in a liposome/agarose bead and placed on the CAM of a 5-6 day chicken embryo. Following 2 days of incubation, the CAMs were scored for relative angiostatic activity by comparing percent responding embryos per nanomole test compound to percent responding embryos for the reference compound.

## COc1ccc2cc(C(C)C(=O)NCC3(C)CCc4c(C)c(O)c(C)c(C)c4O3)ccc2c1 (stereo not shown) [C]
Rabbit cornea; day 4
  Relative Area of Neovascularization: 102 relative area units
Rabbit cornea; day 9
  Relative Area of Neovascularization: 57 relative area units
Rabbit cornea; day 15
  Relative Area of Neovascularization: 41 relative area units
Rabbit cornea; day 22
  Relative Area of Neovascularization: 60 relative area units

## COc1ccc2cc(C(C)C(=O)OCCC3(C)CCc4c(C)c(O)c(C)c(C)c4O3)ccc2c1 (stereo not shown) [Compound A]
[1]; concentration 1.0 μM
  inhibition at 1 µM: 6.7%
[1]; concentration 5.0 μM
  inhibition at 5 µM: 25.5%
[1]; concentration 10 μM
  inhibition at 10 µM: 43.4%
[1]
  inhibition at 25 µM: 55.2%
[2]
  inhibition at 5 µM: 16.3%
  inhibition at 10 µM: 25.7%
  inhibition at 25 µM: 96.5%
[2]; concentration 15 μM
  inhibition at 15 µM: 57.4%
[2]; concentration 20 μM
  inhibition at 20 µM: 82.9%
[3]
  RAF (Relative Angiostatic Factor): 0.10
Rabbit cornea; day 4
  Relative Area of Neovascularization: 66 relative area units
Rabbit cornea; day 9
  Relative Area of Neovascularization: 54 relative area units
Rabbit cornea; day 15
  Relative Area of Neovascularization: 48 relative area units
Rabbit cornea; day 22
  Relative Area of Neovascularization: 103 relative area units

## COc1ccc2cc(C(C)C(=O)OCC3(C)Cc4c(C)c(O)c(C)c(C)c4O3)ccc2c1 (stereo not shown) [Compound B]
[1]; concentration 1.0 μM
  inhibition at 1 µM: 5%
[1]; concentration 5.0 μM
  inhibition at 5 µM: 13.9%
[1]; concentration 10 μM
  inhibition at 10 µM: 47.7%
[1]
  inhibition at 25 µM: 60.5%
[2]
  inhibition at 5 µM: 36.9%
  inhibition at 10 µM: 63.1%
  inhibition at 25 µM: 97.9%
[3]
  RAF (Relative Angiostatic Factor): 1.06

## Cc1c(C)c2c(c(C)c1O)CC(C)(CCN1CCN(C(c3ccc(F)cc3)c3ccc(F)cc3)CC1)O2 (stereo not shown) [Compound E]
[1]; concentration 1.0 μM
  inhibition at 1 µM: 25%
[1]; concentration 5.0 μM
  inhibition at 5 µM: 48%
[1]; concentration 10 μM
  inhibition at 10 µM: 88%
[1]
  inhibition at 25 µM: 91%
[3]
  RAF (Relative Angiostatic Factor): 1.78
Rabbit cornea; day 4
  Relative Area of Neovascularization: 99 relative area units
Rabbit cornea; day 9
  Relative Area of Neovascularization: 76 relative area units
Rabbit cornea; day 15
  Relative Area of Neovascularization: 88 relative area units
Rabbit cornea; day 22
  Relative Area of Neovascularization: 115 relative area units

## Cc1c(C)c2c(c(C)c1OC(=O)CCC(=O)O)CCC(C)(CCCC(C)CCCC(C)CCCC(C)C)O2 (stereo not shown) [Compound G]
[1]; concentration 1.0 μM
  inhibition at 1 µM: 43%
[1]; concentration 5.0 μM
  inhibition at 5 µM: 8%
[1]; concentration 10 μM
  inhibition at 10 µM: 35.1%
[1]
  inhibition at 25 µM: 65.5%
[3]
  RAF (Relative Angiostatic Factor): 1.21

## Cc1c(C)c2c(c(C)c1O)CCC(C)(CCO)O2 (stereo not shown) [F]
Rabbit cornea; day 4
  Relative Area of Neovascularization: 92 relative area units
Rabbit cornea; day 9
  Relative Area of Neovascularization: 85 relative area units
Rabbit cornea; day 15
  Relative Area of Neovascularization: 30 relative area units
Rabbit cornea; day 22
  Relative Area of Neovascularization: 39 relative area units

## C[C@]12CCC(=O)C=C1CC[C@@H]1[C@@H]2[C@@H](O)C[C@@]2(C)[C@H]1CC[C@]2(O)C(=O)COC(=O)CCC(=O)O [Hydrocortisone hemisuccinate, reference compound]
Rabbit cornea; day 4
  Relative Area of Neovascularization: 0 relative area units
Rabbit cornea; day 9
  Relative Area of Neovascularization: 1.5 relative area units
Rabbit cornea; day 15
  Relative Area of Neovascularization: 0.6 relative area units
Rabbit cornea; day 22
  Relative Area of Neovascularization: 4.9 relative area units

## C[C@]12CC[C@@H](O)C[C@H]1CC[C@@H]1[C@@H]2[C@@H](O)C[C@@]2(C)[C@H]1CC[C@]2(O)C(=O)CO [Tetrahydrocortisol, tetrahydrocortisol, reference compound]
[3]
  RAF (Relative Angiostatic Factor): 1.00

## Vitamin E [reference compound]
[1]; concentration 1.0 μM
  % Inhibition of Endothelial Cell Proliferation: 0%
[1]; concentration 5.0 μM
  % Inhibition of Endothelial Cell Proliferation: 0%
[1]; concentration 10 μM
  % Inhibition of Endothelial Cell Proliferation: 1%
